Patent US10512634B2, “Benzimidazole derivates useful as inhibitors of mammalian histone deacetylase activity” (KANCERA AB, priority 2015, dated 2019)
Structures can show the parent of a compound that is named as a salt. Where two headings read alike, the source gives them in different places. Values belong to the compound of their own block, whether it stands above or below them.

Legend:
HDAC6 = HDAC6 (Homo sapiens (Human), UniProt Q9UBN7); assay: HDAC in vitro enzymatic assay (fluorescence); assay type: biochemical; details: top concentration 2 μM
Description: Biological Tests Method for Measurement of Enzymatic Activity of HDACs Materials & Methods
All Examples were tested in HDAC1, 2, 3, 6 and 8 in vitro enzymatic assays. The assay principle is well known (Hauser et al. 2009, Bradner et al. 2010) and all necessary reagents like enzymes, substrates, developer and reference compounds are commercially available (see e.g. BPS Biosciences http://www.bpsbioscience.com/). A series of dilutions of the compounds were prepared with a top concentration of 200 μM (2 μM for HDAC6). The enzymatic reactions were conducted in a mixture containing assay buffer, bovine serum albumin, HDAC substrate, and a test compound. After enzymatic reaction, developer was added and after an additional incubation time, fluorescence intensity was measured at an excitation wavelength of 360 nm and an emission wavelength of 460 nm. A selection of the Examples were tested in a full HDAC panel containing HDAC1, 2, 3, 4, 5, 6, 7, 8, 9, 10 and 11 in vitro enzymatic assays. The tests were performed as above except that a series of dilutions of the compounds were prepared with a top concentration of 10 μM for all HDACs.

HDAC1 = HDAC1 (Homo sapiens (Human), UniProt Q13547); assay: HDAC in vitro enzymatic assay (fluorescence); details: read-out: IC50 HDAC1; selectivity profiling; top concentration 200 μM
HDAC2 = HDAC2 (Homo sapiens (Human), UniProt Q92769); assay: HDAC in vitro enzymatic assay (fluorescence); details: read-out: IC50 HDAC2; selectivity profiling; top concentration 200 μM
HDAC3 = HDAC3 (Homo sapiens (Human), UniProt O15379); assay: HDAC in vitro enzymatic assay (fluorescence); details: read-out: IC50 HDAC3; selectivity profiling; top concentration 200 μM
HDAC8 = HDAC8 (Homo sapiens (Human), UniProt Q9BY41); assay: HDAC in vitro enzymatic assay (fluorescence); details: read-out: IC50 HDAC8; selectivity profiling; top concentration 200 μM
AMO-1 (plasmacytom) = assay: CellTiter-Blue cell viability assay; assay type: cell-based; details: Homo sapiens, AMO1; AMO-1 cells, 72 hours of treatment; read-out: IC50 AMO-1 (cell viability)
Description: (§1) Method for Measurement of Cell Viability
(§2) The CellTiter-Blue® Cell Viability Assay (Promega) provides a homogeneous, fluorometric method for estimating the number of viable cells present in multi-well plates. The assay uses the indicator dye resazurin to measure the metabolic capacity of cells. Viable cells retain the ability to reduce resazurin into resorufin, which is highly fluorescent.
(§3) Stock solutions (10 mM in DMSO) of compounds were serially diluted 1:2 in 11 concentrations. 50 nL/well (10 mM compound stock in DMSO) was acoustically dispensed in 384-well assay plates with an acoustic dispenser (EDC Biosystems ATS-100AV). Final starting concentration in the assay was 20 μM (0.2% DMSO) for test compounds. […] After 72 hours, Celltiter Blue reagent (Promega #G8081) was diluted 1:10 with PBS and then added to wells (5 μL/well). The plates were incubated for 2 hours following addition of reagent. […] Results were calculated as % cell viability compared to background (cells treated with 0.2% DMSO).

[1] = test system: PBMC (peripheral blood mononuclear cells from healthy donors); assay: CellTiter-Blue cell viability assay; assay type: cell-based; details: healthy PBMC, 72 hours of treatment; read-out: IC50 healthy PBMC (cell viability)
Description: as §1, §2, §3

U266 (multiple myelom) = assay: CellTiter-Blue cell viability assay; assay type: cell-based; details: Homo sapiens, U-266; U266 cells, 72 hours of treatment; read-out: IC50 U266 (cell viability)
Description: as §1, §2, §3

[2] = read-out: IC50 values for inhibition of HDAC6
[3] = selectivity profiling, read-out: IC50 HDAC6

Sequence of HDAC8 (Q9BY41 whole entry): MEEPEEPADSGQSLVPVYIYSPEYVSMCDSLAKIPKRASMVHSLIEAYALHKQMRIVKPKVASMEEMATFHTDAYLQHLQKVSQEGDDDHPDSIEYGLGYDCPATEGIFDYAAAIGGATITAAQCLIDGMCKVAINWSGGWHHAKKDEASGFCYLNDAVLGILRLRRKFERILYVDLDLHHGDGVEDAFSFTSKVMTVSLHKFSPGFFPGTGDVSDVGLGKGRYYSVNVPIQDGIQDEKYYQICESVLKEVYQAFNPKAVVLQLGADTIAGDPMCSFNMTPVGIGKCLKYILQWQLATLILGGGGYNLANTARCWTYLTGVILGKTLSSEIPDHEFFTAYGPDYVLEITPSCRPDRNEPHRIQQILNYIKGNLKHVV
Sequence of HDAC2 (Q92769 whole entry): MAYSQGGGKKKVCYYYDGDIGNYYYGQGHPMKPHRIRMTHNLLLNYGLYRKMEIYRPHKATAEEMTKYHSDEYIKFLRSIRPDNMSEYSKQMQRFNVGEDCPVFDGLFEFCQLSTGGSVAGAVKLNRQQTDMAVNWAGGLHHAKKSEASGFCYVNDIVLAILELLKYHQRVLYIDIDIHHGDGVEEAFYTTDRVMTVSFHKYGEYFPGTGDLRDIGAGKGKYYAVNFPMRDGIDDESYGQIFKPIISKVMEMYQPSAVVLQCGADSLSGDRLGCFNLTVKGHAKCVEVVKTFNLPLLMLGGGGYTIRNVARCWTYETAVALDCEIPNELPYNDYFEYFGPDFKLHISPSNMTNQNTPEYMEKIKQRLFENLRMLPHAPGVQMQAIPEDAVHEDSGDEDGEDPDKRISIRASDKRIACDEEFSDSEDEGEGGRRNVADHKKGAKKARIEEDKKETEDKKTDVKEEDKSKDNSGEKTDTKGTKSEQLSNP
Sequence of HDAC1 (Q13547 whole entry): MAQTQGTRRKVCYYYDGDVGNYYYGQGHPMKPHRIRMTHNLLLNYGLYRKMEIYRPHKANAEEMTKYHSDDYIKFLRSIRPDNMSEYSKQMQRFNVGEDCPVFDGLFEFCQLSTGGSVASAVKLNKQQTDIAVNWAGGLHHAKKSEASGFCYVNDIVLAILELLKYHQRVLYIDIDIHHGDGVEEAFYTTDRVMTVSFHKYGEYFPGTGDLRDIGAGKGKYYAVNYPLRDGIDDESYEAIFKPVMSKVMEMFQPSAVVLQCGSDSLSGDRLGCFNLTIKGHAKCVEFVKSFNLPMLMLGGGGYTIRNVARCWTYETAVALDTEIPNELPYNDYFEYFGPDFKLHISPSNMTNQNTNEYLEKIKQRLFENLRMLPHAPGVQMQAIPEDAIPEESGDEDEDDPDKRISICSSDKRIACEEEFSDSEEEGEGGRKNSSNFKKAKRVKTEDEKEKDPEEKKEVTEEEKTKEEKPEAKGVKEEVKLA
Sequence of HDAC3 (O15379 whole entry): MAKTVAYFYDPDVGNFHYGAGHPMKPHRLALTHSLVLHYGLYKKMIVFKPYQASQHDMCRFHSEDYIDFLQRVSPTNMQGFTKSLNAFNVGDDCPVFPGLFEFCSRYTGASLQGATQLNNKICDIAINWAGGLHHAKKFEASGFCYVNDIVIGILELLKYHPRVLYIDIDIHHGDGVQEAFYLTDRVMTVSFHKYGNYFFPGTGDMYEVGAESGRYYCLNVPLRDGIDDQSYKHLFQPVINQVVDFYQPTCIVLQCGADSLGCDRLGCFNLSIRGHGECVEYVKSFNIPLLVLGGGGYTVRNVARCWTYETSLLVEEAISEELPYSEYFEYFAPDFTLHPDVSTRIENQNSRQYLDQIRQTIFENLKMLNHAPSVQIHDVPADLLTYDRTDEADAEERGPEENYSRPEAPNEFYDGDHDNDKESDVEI
Sequence of HDAC3 (Q9Y618 395-489 partner): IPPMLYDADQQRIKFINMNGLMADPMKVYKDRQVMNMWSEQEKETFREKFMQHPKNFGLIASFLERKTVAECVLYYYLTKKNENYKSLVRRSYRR

Structure (SMILES): CN1CCN(Cc2ccc(-c3nc4ccc(C(=O)NO)cc4[nH]3)cc2)CC1 [Example 207, N-hydroxy-2-{4-[(4-methylpiperazin-1-yl)methyl]phenyl}-1H-benzimidazole-6-carboxamide]
IC50 (HDAC6; [3]): 7 nM
IC50 (HDAC6; [2]): 7 nM
IC50 (HDAC1): 700 nM
IC50 (HDAC2): 7800 nM
IC50 (HDAC3): 250 nM
IC50 (HDAC8): 1800 nM

Structure (SMILES): O=C(NO)c1ccc2nc(-c3cccs3)[nH]c2c1 [Example 98, N-hydroxy-2-thiophen-2-yl-1H-benzimidazole-6-carboxamide]
IC50 (HDAC6; [3]): 7 nM
IC50 (HDAC6; [2]): 7 nM
IC50 (HDAC1): 4400 nM
IC50 (HDAC2): 24000 nM
IC50 (HDAC3): 1900 nM
IC50 (HDAC8): 290 nM

Structure (SMILES): O=C(NO)c1ccc2nc(-c3ccc(-c4ccccc4)c(F)c3)[nH]c2c1 [Example 180, 2-(2-fluorobiphenyl-4-yl)-N-hydroxy-1H-benzimidazole-6-carboxamide]
IC50 (AMO-1 (plasmacytom)): 420 nM
IC50 [1]: > 20000 nM
IC50 (U266 (multiple myelom)): 560 nM

Structure (SMILES): CC(C)Oc1ccc(-c2nc3ccc(C(=O)NO)cc3[nH]2)cc1 [Example 97, N-hydroxy-2-[4-(1-methylethoxy)phenyl]-1H-benzimidazole-6-carboxamide]
IC50 (HDAC6; [3]): 12 nM
IC50 (HDAC6; [2]): 12 nM
IC50 (HDAC1): 5700 nM
IC50 (HDAC2): 33000 nM
IC50 (HDAC3): 2400 nM
IC50 (HDAC8): 260 nM

Structure (SMILES): O=C(NO)c1ccc2nc(-c3ccc4c(c3)OCCO4)[nH]c2c1 [Example 11, 2-(2,3-dihydro-1,4-benzodioxin-6-yl)-N-hydroxy-1H-benzimidazole-6-carboxamide]
IC50 (HDAC6; [2]): 110 nM

Structure (SMILES): CCc1ccc(-c2nc3ccc(C(=O)NO)cc3[nH]2)cc1 [Example 109, 2-(4-ethylphenyl)-N-hydroxy-1H-benzimidazole-6-carboxamide]
IC50 (HDAC6; [3]): 46 nM
IC50 (HDAC6; [2]): 46 nM
IC50 (HDAC1): 6500 nM
IC50 (HDAC2): 165000 nM
IC50 (HDAC3): 2200 nM
IC50 (HDAC8): 1200 nM

Structure (SMILES): COCCCNCc1ccc(-c2ccc(-c3nc4ccc(C(=O)NO)cc4[nH]3)cc2)cc1 [Example 191, N-hydroxy-2-(4′-{[(3-methoxypropyl)amino]methyl}biphenyl-4-yl)-1H-benzimidazole-6-carboxamide trifluoroacetate]
IC50 (HDAC6; [2]): 18 nM

Structure (SMILES): COc1c(C)cc(-c2nc3cc(C(=O)NO)ccc3n2C)cc1C [Example 228, N-hydroxy-2-(4-methoxy-3,5-dimethylphenyl)-1-methyl-1H-benzimidazole-5-carboxamide]
IC50 (HDAC6; [3]): 3.5 nM
IC50 (HDAC6; [2]): 3.5 nM
IC50 (HDAC1): 2000 nM
IC50 (HDAC2): 20000 nM
IC50 (HDAC3): 216 nM
IC50 (HDAC8): 100 nM

Structure (SMILES): O=C(NO)c1ccc2nc(-c3ccc(-c4ccccc4F)cc3)[nH]c2c1 [Example 167, 2-(2′-fluorobiphenyl-4-yl)-N-hydroxy-1H-benzimidazole-6-carboxamide]
IC50 (HDAC6; [2]): 19 nM
IC50 (AMO-1 (plasmacytom)): 140 nM
IC50 [1]: > 20000 nM
IC50 (U266 (multiple myelom)): 160 nM

Structure (SMILES): O=C(NO)c1ccc2nc(-c3ccccc3-c3ccccc3)[nH]c2c1 [Example 119, 2-biphenyl-2-yl-N-hydroxy-1H-benzimidazole-6-carboxamide]
IC50 (HDAC6; [3]): 14 nM
IC50 (HDAC6; [2]): 14 nM
IC50 (HDAC1): 4000 nM
IC50 (HDAC2): 29000 nM
IC50 (HDAC3): 2800 nM
IC50 (HDAC8): 710 nM

Structure (SMILES): C#Cc1ccc(-c2nc3ccc(C(=O)NO)cc3[nH]2)cc1 [Example 80, 2-(4-ethynylphenyl)-N-hydroxy-1H-benzimidazole-6-carboxamide]
IC50 (HDAC6; [2]): 19 nM

Structure (SMILES): O=C(NO)c1ccc2nc(-c3ccc4c(c3)CCO4)[nH]c2c1 [Example 96, 2-(2,3-dihydro-1-benzofuran-5-yl)-N-hydroxy-1H-benzimidazole-6-carboxamide]
IC50 (HDAC6; [3]): 5.2 nM
IC50 (HDAC6; [2]): 5.2 nM
IC50 (HDAC1): 5000 nM
IC50 (HDAC2): 58000 nM
IC50 (HDAC3): 1300 nM
IC50 (HDAC8): 220 nM

Structure (SMILES): CN(C)C(=O)c1cccc(-c2ccc(-c3nc4ccc(C(=O)NO)cc4[nH]3)cc2)c1 [Example 195, 2-[3′-(dimethylcarbamoyl)biphenyl-4-yl]-N-hydroxy-1H-benzimidazole-6-carboxamide]
IC50 (HDAC6; [2]): 24 nM

The remaining lines, values ahead:

IC50 (HDAC6; [2]): 13 nM
Structure (SMILES): COc1cccc(-c2nc3ccc(C(=O)NO)cc3[nH]2)c1O [Example 85, N-hydroxy-2-(2-hydroxy-3-methoxyphenyl)-1H-benzimidazole-6-carboxamide]

IC50 (HDAC6; [2]): 3.1 nM
Structure (SMILES): O=C(NO)c1ccc2nc(-c3ccc(-c4ccccc4)s3)[nH]c2c1 [Example 179, N-hydroxy-2-(5-phenylthiophen-2-yl)-1H-benzimidazole-6-carboxamide]

IC50 (HDAC6; [2]): 18 nM
Structure (SMILES): O=C(NO)c1ccc2nc(-c3cccc(OCCOc4ccccc4)c3)[nH]c2c1 [Example 134, N-hydroxy-2-[3-(2-phenoxyethoxy)phenyl]-1H-benzimidazole-6-carboxamide]

IC50 (HDAC6; [2]): 15 nM
Structure (SMILES): Cn1c(-c2nc3ccc(C(=O)NO)cc3[nH]2)cc2ccccc21 [Example 112, N-hydroxy-2-(1-methyl-1H-indol-2-yl)-1H-benzimidazole-6-carboxamide]

IC50 (HDAC6; [2]): 13 nM
Structure (SMILES): C[C@@H]1CN(Cc2ccc(-c3ccc(-c4nc5ccc(C(=O)NO)cc5[nH]4)cc3)cc2)C[C@H](C)O1 [Example 201, 2-(4′-{cis)-2,6-dimethylmorpholin-4-yl]methyl}biphenyl-4-yl)-N-hydroxy-1H-benzimidazole-6-carboxamide trifluoroacetate]

IC50 (HDAC6; [2]): 4.7 nM
Structure (SMILES): COc1ccc(-c2ccc(-c3nc4ccc(C(=O)NO)cc4[nH]3)o2)cc1OC [Example 174, 2-[5-(3,4-dimethoxyphenyl)furan-2-yl]-N-hydroxy-1H-benzimidazole-6-carboxamide]

IC50 (HDAC6; [2]): 11 nM
Structure (SMILES): O=C(NO)c1ccc2nc(-c3ccc(-c4ccc(/C=N/O)cc4)cc3)[nH]c2c1 [Example 193, N-hydroxy-2-{4′-[(E)-(hydroxyimino)methyl]biphenyl-4-yl}-1H-benzimidazole-6-carboxamide]

IC50 (HDAC6; [2]): 14 nM
Structure (SMILES): O=C(NO)c1ccc2nc(-c3ccnc4ccccc34)[nH]c2c1 [Example 66, N-hydroxy-2-quinolin-4-yl-1H-benzimidazole-6-carboxamide trifluoroacetate]

IC50 (HDAC6; [2]): 4.1 nM
Structure (SMILES): O=C(NO)c1ccc2nc(-c3ccc(-c4cccc(CN5CCCCC5)c4)cc3)[nH]c2c1 [Example 186, N-hydroxy-2-[3′-(piperidin-1-ylmethyl)biphenyl-4-yl]-1H-benzimidazole-6-carboxamide trifluoroacetate]

IC50 (HDAC6; [2]): 14 nM
Structure (SMILES): CCN(CC)CCOc1ccc(-c2nc3ccc(C(=O)NO)cc3[nH]2)cc1 [Example 125, 2-{4-[2-(diethylamino)ethoxy]phenyl}-N-hydroxy-1H-benzimidazole-6-carboxamide]

IC50 (HDAC6; [2]): 2.9 nM
Structure (SMILES): O=C(NO)c1ccc2nc(-c3ccc(-c4ccccc4F)s3)[nH]c2c1 [Example 176, 2-[5-(2-fluorophenyl)thiophen-2-yl]-N-hydroxy-1H-benzimidazole-6-carboxamide]

IC50 (HDAC6; [2]): 6.6 nM
Structure (SMILES): COc1ccc(Oc2cccc(-c3nc4ccc(C(=O)NO)cc4[nH]3)c2)cc1 [Example 113, N-hydroxy-2-[3-(4-methoxyphenoxy)phenyl]-1H-benzimidazole-6-carboxamide]

IC50 (HDAC6; [2]): 3.6 nM
Structure (SMILES): O=C(NO)c1ccc2nc(-c3ccc(-c4ccc(CN5CCCC5)cc4)cc3)[nH]c2c1 [Example 197, N-hydroxy-2-[4′-(pyrrolidin-1-ylmethyl)biphenyl-4-yl]-1H-benzimidazole-6-carboxamide trifluoroacetate]

IC50 (HDAC6; [2]): 7.2 nM
Structure (SMILES): CS(=O)(=O)Nc1ccc(-c2ccc(-c3nc4ccc(C(=O)NO)cc4[nH]3)cc2)cc1 [Example 204, N-hydroxy-2-{4′-[(methylsulfonyl)amino]biphenyl-4-yl}-1H-benzimidazole-6-carboxamide]
